Experimental data as given in patent US12497408B2, “Tetracyclic compounds and methods for the treatment of Zika virus infection” (priority 2021, dated 2025).

test system: ZIKV; assay: ZIKV reporter virus-based antiviral screening on Huh7 cells; assay type: cell-based, Zika virus; settings: Zika virus, Huh-7, 48 h, Huh7 cells infected with recombinant luciferase reporter ZIKV (MOI about 0.1), luciferase signal
In short: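 Huh7 cells in 2% FBS assay medium infected at MOI about 0.1 with Renilla or Nano luciferase ZIKV premixed with nine-point compound dilutions, 48 hrs at 37° C. Luciferase signal normalized to DMSO controls as 100%; viability optionally by CellTiter-Glo with Rlu virus.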

Going from CC[C@H](C)[C@H](NC(=O)OC)C(=O)N1[C@@H](C)CC[C@H]1c1nc(Cl)c(-c2cc3c4c(c2)OCc2cc(-c5[nH]c([C@@H]6CC[C@H](C)N6C(=O)[C@@H](NC(=O)OC)[C@@H](C)CC)nc5C(C)C)cc(c2-4)OC3)[nH]1 [Compound 44, methyl ((2S,3S)-1-((2S,5S)-2-(5-(7-(4-chloro-2-((2S,5S)-1-((methoxycarbonyl)-L-isoleucyl)-5-methylpyrrolidin-2-yl)-1H-imidazol-5-yl)-5,10-dihydrochromeno[5,4,3-cde]chromen-2-yl)-4-isopropyl-1H-imidazol-2-yl)-5-methylpyrrolidin-1-yl)-3-methyl-1-oxopentan-2-yl)carbamate] to CC[C@H](C)[C@H](NC(=O)OC)C(=O)N1[C@H](C)CC[C@H]1c1nc(Cl)c(-c2cc3c4c(c2)OCc2cc(-c5[nH]c([C@@H]6CC[C@@H](C)N6C(=O)[C@@H](NC(=O)OC)[C@@H](C)CC)nc5Cl)cc(c2-4)OC3)[nH]1 [Compound 63, dimethyl ((2S,2′S,3S,3′S)-((2R,2′R,5S,5′S)-((5,10-dihydrochromeno[5,4,3-cde]chromene-2,7-diyl)bis(4-chloro-1H-imidazole-5,2-diyl))bis(2-methylpyrrolidine-5,1-diyl))bis(3-methyl-1-oxopentane-1,2-diyl))dicarbamate], the EC50 rises from 1.9 nM to 16.4 nM (8.6-fold). The first is the more potent here.

First: CCc1nc([C@@H]2CCCN2C(=O)[C@@H](NC(=O)OC)C(C)C)[nH]c1-c1cc2c3c(c1)OCc1cc(-c4[nH]c([C@@H]5CCCN5C(=O)[C@@H](NC(=O)OC)C(C)C)nc4CC)cc(c1-3)OC2 [Compound 18, dimethyl ((2S,2′S)-((2S,2′S)-((5,10-dihydrochromeno[5,4,3-cde]chromene-2,7-diyl)bis(4-ethyl-1H-imidazole-5,2-diyl))bis(pyrrolidine-2,1-diyl))bis(3-methyl-1-oxobutane-1,2-diyl))dicarbamate]
Second: COC(=O)N[C@H](C(=O)N1CCC[C@H]1c1nc(C2CC2)c(-c2cc3c4c(c2)OCc2cc(-c5[nH]c([C@@H]6CCCN6C(=O)[C@@H](NC(=O)OC)C(C)C)nc5C5CC5)cc(c2-4)OC3)[nH]1)C(C)C [Compound 17, dimethyl ((2S,2′S)-((2S,2′S)-((5,10-dihydrochromeno[5,4,3-cde]chromene-2,7-diyl)bis(4-cyclopropyl-1H-imidazole-5,2-diyl))bis(pyrrolidine-2,1-diyl))bis(3-methyl-1-oxobutane-1,2-diyl))dicarbamate]
The EC50 of the first is 3.4-fold higher: 255 nM for the first, 74.5 nM for the second. The second is the more potent here.

Going from CC[C@H](C)[C@H](NC(=O)OC)C(=O)N1C[C@@H](C)C[C@H]1c1nc(Cl)c(-c2cc3c4c(c2)OCc2cc(-c5[nH]c([C@@H]6C[C@H](C)CN6C(=O)[C@@H](NC(=O)OC)[C@@H](C)CC)nc5Cl)cc(c2-4)OC3)[nH]1 [Compound 68, dimethyl ((2S,2′S,3S,3′S)-((3S,3′S,5S,5′S)-((5,10-dihydrochromeno[5,4,3-cde]chromene-2,7-diyl)bis(4-chloro-1H-imidazole-5,2-diyl))bis(3-methylpyrrolidine-5,1-diyl))bis(3-methyl-1-oxopentane-1,2-diyl))dicarbamate] to CC[C@H](C)[C@H](NC(=O)OC)C(=O)N1C[C@H](C)C[C@H]1c1nc(Cl)c(-c2cc3c4c(c2)OCc2cc(-c5[nH]c([C@@H]6C[C@@H](C)CN6C(=O)[C@@H](NC(=O)OC)[C@@H](C)CC)nc5Cl)cc(c2-4)OC3)[nH]1 [Compound 2, dimethyl ((2S,2′S,3S,3′S)-((3R,3′R,5S,5′S)-((5,10-dihydrochromeno[5,4,3-cde]chromene-2,7-diyl)bis(4-chloro-1H-imidazole-5,2-diyl))bis(3-methylpyrrolidine-5,1-diyl))bis(3-methyl-1-oxopentane-1,2-diyl))dicarbamate], the EC50 falls from 9.9 nM to 6.5 nM (1.5-fold).

Compared with CC[C@H](C)[C@H](NC(=O)OC)C(=O)N1CC2(CC2)C[C@H]1c1nc(Cl)c(-c2cc3c4c(c2)OCc2cc(-c5[nH]c([C@@H]6CC7(CC7)CN6C(=O)[C@@H](NC(=O)OC)[C@@H](C)CC)nc5C(C)C)cc(c2-4)OC3)[nH]1 [Compound 16, methyl ((2S,3S)-1-((S)-6-(5-(7-(4-chloro-2-((S)-5-((methoxycarbonyl)-L-isoleucyl)-5-azaspiro[2.4]heptan-6-yl)-1H-imidazol-5-yl)-5,10-dihydrochromeno[5,4,3-cde]chromen-2-yl)-4-isopropyl-1H-imidazol-2-yl)-5-azaspiro[2.4]heptan-5-yl)-3-methyl-1-oxopentan-2-yl)carbamate], COC(=O)N[C@H](C(=O)N1CC2(CC2)C[C@H]1c1nc(Cl)c(-c2cc3c4c(c2)OCc2cc(-c5[nH]c([C@@H]6CC7(CC7)CN6C(=O)[C@@H](NC(=O)OC)C(C)C)nc5C(C)C)cc(c2-4)OC3)[nH]1)C(C)C [Compound 15, methyl ((S)-1-((S)-6-(5-(7-(4-chloro-2-((S)-5-((methoxycarbonyl)-L-valyl)-5-azaspiro[2.4]heptan-6-yl)-1H-imidazol-5-yl)-5,10-dihydrochromeno[5,4,3-cde]chromen-2-yl)-4-isopropyl-1H-imidazol-2-yl)-5-azaspiro[2.4]heptan-5-yl)-3-methyl-1-oxobutan-2-yl)carbamate] is 1.6-fold higher in EC50: 2.3 nM for the first, 3.7 nM for the second.

Compared with CC[C@H](C)[C@H](NC(=O)OC)C(=O)N1C[C@@H](F)C[C@H]1c1nc(Cl)c(-c2cc3c4c(c2)OCc2cc(-c5[nH]c([C@@H]6C[C@H](F)CN6C(=O)[C@@H](NC(=O)OC)[C@@H](C)CC)nc5Cl)cc(c2-4)OC3)[nH]1 [Compound 51, dimethyl ((2S,2′S,3S,3′S)-((3S,3′S,5S,5′S)-((5,10-dihydrochromeno[5,4,3-cde]chromene-2,7-diyl)bis(4-chloro-1H-imidazole-5,2-diyl))bis(3-fluoropyrrolidine-5,1-diyl))bis(3-methyl-1-oxopentane-1,2-diyl))dicarbamate], COC(=O)N[C@H](C(=O)N1CC(C)(C)C[C@H]1c1nc(Cl)c(-c2cc3c4c(c2)OCc2cc(-c5[nH]c([C@@H]6CC(C)(C)CN6C(=O)[C@@H](NC(=O)OC)C(C)C)nc5Cl)cc(c2-4)OC3)[nH]1)C(C)C [Compound 7, dimethyl ((2S,2′S)-((5S,5′S)-((5,10-dihydrochromeno[5,4,3-cde]chromene-2,7-diyl)bis(4-chloro-1H-imidazole-5,2-diyl))bis(3,3-dimethylpyrrolidine-5,1-diyl))bis(3-methyl-1-oxobutane-1,2-diyl))dicarbamate] is 24-fold lower in EC50: 98.8 nM for the first, 4.2 nM for the second.

Going from COC(=O)N[C@H](C(=O)N1[C@H](c2nc(Cl)c(-c3cc4c5c(c3)OCc3cc(-c6[nH]c([C@@H]7C[C@@H]8CCCC[C@@H]8N7C(=O)[C@@H](NC(=O)OC)C(C)(C)C(F)(F)F)nc6Cl)cc(c3-5)OC4)[nH]2)C[C@@H]2CCCC[C@@H]21)C(C)(C)C(F)(F)F [Compound 38, dimethyl ((2S,2′S)-((2S,2′S,3aS,3a′S,7aS,7a′S)-((5,10-dihydrochromeno[5,4,3-cde]chromene-2,7-diyl)bis(4-chloro-1H-imidazole-5,2-diyl))bis(octahydro-1H-indole-2,1-diyl))bis(4,4,4-trifluoro-3,3-dimethyl-1-oxobutane-1,2-diyl))dicarbamate] to COC(=O)N[C@H](C(=O)N1[C@H](C)CC[C@H]1c1nc(Cl)c(-c2cc3c4c(c2)OCc2cc(-c5[nH]c([C@@H]6CC[C@@H](C)N6C(=O)[C@@H](NC(=O)OC)C(C)(C)C(F)(F)F)nc5Cl)cc(c2-4)OC3)[nH]1)C(C)(C)C(F)(F)F [Compound 65, dimethyl ((2S,2′S)-((2R,2′R,5S,5′S)-((5,10-dihydrochromeno[5,4,3-cde]chromene-2,7-diyl)bis(4-chloro-1H-imidazole-5,2-diyl))bis(2-methylpyrrolidine-5,1-diyl))bis(4,4,4-trifluoro-3,3-dimethyl-1-oxobutane-1,2-diyl))dicarbamate], the EC50 rises from 25.6 nM to 71.7 nM (2.8-fold). The first is the more potent here.

Compared with COC(=O)N[C@H](C(=O)N1CC(F)(F)C[C@H]1c1nc(Cl)c(-c2cc3c4c(c2)OCc2cc(-c5[nH]c([C@@H]6CC(F)(F)CN6C(=O)[C@@H](NC(=O)OC)C(C)(C)C(F)(F)F)nc5Cl)cc(c2-4)OC3)[nH]1)C(C)(C)C(F)(F)F [Compound 58, dimethyl ((2S,2′S)-((5S,5′S)-((5,10-dihydrochromeno[5,4,3-cde]chromene-2,7-diyl)bis(4-chloro-1H-imidazole-5,2-diyl))bis(3,3-difluoropyrrolidine-5,1-diyl))bis(4,4,4-trifluoro-3,3-dimethyl-1-oxobutane-1,2-diyl))dicarbamate], COC(=O)N[C@H](C(=O)N1CC2(CC2)C[C@H]1c1nc(Cl)c(-c2cc3c4c(c2)OCc2cc(-c5[nH]c([C@@H]6CC7(CC7)CN6C(=O)[C@@H](NC(=O)OC)C(C)(C)C(F)(F)F)nc5Cl)cc(c2-4)OC3)[nH]1)C(C)(C)C(F)(F)F [Compound 61, dimethyl ((2S,2′S)-((6S,6′S)-((5,10-dihydrochromeno[5,4,3-cde]chromene-2,7-diyl)bis(4-chloro-1H-imidazole-5,2-diyl))bis(5-azaspiro[2.4]heptane-6,5-diyl))bis(4,4,4-trifluoro-3,3-dimethyl-1-oxobutane-1,2-diyl))dicarbamate] is 3.9-fold lower in EC50: 11 nM for the first, 2.8 nM for the second.

Compared with COC(=O)N[C@H](C(=O)N1[C@H](c2ncc(-c3cc4c5c(c3)OCc3cc(-c6[nH]c([C@@H]7C[C@@H]8CCC[C@@H]8N7C(=O)[C@@H](NC(=O)OC)C(C)C)nc6Cl)cc(c3-5)OC4)[nH]2)C[C@@H]2CCC[C@@H]21)C(C)C [Compound 30, methyl ((S)-1-((2S,3aS,6aS)-2-(4-chloro-5-(7-(2-((2S,3aS,6aS)-1-((methoxycarbonyl)-L-valyl)octahydrocyclopenta[b]pyrrol-2-yl)-1H-imidazol-5-yl)-5,10-dihydrochromeno[5,4,3-cde]chromen-2-yl)-1H-imidazol-2-yl)hexahydrocyclopenta[b]pyrrol-1(2H)-yl)-3-methyl-1-oxobutan-2-yl)carbamate], COC(=O)N[C@H](C(=O)N1CCC[C@H]1c1nc(Cl)c(-c2cc3c4c(c2)OCc2cc(-c5[nH]c([C@@H]6CCCN6C(=O)[C@@H](NC(=O)OC)C(C)(C)C)nc5Cl)cc(c2-4)OC3)[nH]1)C(C)(C)C [Compound 26, dimethyl ((2S,2′S)-((2S,2′S)-((5,10-dihydrochromeno[5,4,3-cde]chromene-2,7-diyl)bis(4-chloro-1H-imidazole-5,2-diyl))bis(pyrrolidine-2,1-diyl))bis(3,3-dimethyl-1-oxobutane-1,2-diyl))dicarbamate] is 5-fold lower in EC50: 8 nM for the first, 1.6 nM for the second. The second is the more potent here.
